Values of other authors as cited in patent US7887828B2, “Dual action organic formulation to control two stages of insect pests” (ISCA Technologies, Inc., priority 2006, dated 2011).

Columns and labels:
[1] = tested on: gypsy moth larvae; details: 3-day exposure; 13-day evaluation; 2nd instar larvae; treated red oak leaf disks
[2] = tested on: gypsy moth larvae; details: 16 hours after a 2 minute crawling exposure to glass coated with a 4 mg/litre solution
[3] = tested on: gypsy moth larvae
[4] = tested on: mammalian and avian species; details: as indicated by DAS

spinosad
LC50 [1]: 0.0015 mg AI/cm2 | treated larvae paralyzed [2]: 50% | larval populations reduced ([3]; 3±50 mg/litre applied to run-off, ornamental style applications): 95±100% | population reduction ([3]; application rate of 0.75 mg/litre): large population reductions | concentrations that effectively controlled 2nd instar larvae ([3]; applied to foliage to run-off, laboratory potted red oak seedlings and field 4 m-tall birch trees): 3 to 50 mg/L | toxicity to mammalian and avian species [4]: little or no toxicity
